We go through 16 compounds from patent US20100298377A1, “NOVEL SUBSTITUTED INDAZOLES, THE PREPARATION THEREOF AND USE OF SAME IN THERAPEUTICS” (SANOFI-AVENTIS, priority 2007, published 2010).

The target of assay [1] is AKT1 (Homo sapiens, UniProt P31749, S473D). In words: Determination of the IC50 for AKT1 (HTRF). As to conditions: AKT1 without PH domain, activated by PDK1. The format is biochemical. In short, it runs like this: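 HTRF assay of AKT1 (S473D) kinase activity on a biotinylated peptide substrate, with 100 μM ATP and 10 μM peptide in the initiating solution.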
Chain of AKT1 (P31749 118-480 S473D limits assumed): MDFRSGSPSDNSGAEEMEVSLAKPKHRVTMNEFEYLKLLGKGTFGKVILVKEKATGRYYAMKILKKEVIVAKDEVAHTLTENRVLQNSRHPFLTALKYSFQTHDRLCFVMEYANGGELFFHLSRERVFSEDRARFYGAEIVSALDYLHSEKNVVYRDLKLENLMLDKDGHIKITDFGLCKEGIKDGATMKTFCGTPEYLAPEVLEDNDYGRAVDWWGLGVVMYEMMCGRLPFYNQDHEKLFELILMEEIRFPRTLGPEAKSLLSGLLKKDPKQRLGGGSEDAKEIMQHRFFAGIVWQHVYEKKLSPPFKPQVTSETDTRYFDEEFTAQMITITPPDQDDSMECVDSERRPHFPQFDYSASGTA
(Time-resolved FRET reads energy transfer from a long-lived donor to a nearby acceptor.)

Assay [2] concerns MIA PaCa-2 cells (human pancreatic carcinoma cells). In words: Proliferation of MIA PaCa-2 cells, intracellular ATP, CellTiter-Glo test. The class given is cell-based. As to conditions: 96 hours. From the text:
b. Study of the Proliferation of Human Tumoral MIA PaCa-2, C-433, LnCaP and MCF7 Cells via Assay of the Intracellular ATP Using the Celltiter-Glo™ Test
The kit CellTiter-Glo™ for measuring cell viability via luminescence ([…]) is a homogeneous method for determining the number of viable cells in culture, based on quantification of the ATP present in the cells, and which indicates the presence of metabolically active cells.
The cell lines used in this test were the following: MIA PaCa-2 cells (human pancreatic carcinoma cells, ATCC, CRL-1420), C-433 cells (human Ewing sarcoma cells, DSMZ, ACC 268), LNCaP clone FGC cells (human prostate carcinoma cells, ATCC, CRL-1740), MCF7 cells (human breast carcinoma cells, ECACC, #86012803). The cells MIAPaCa-2 and LNCaP were cultured in D-MEM culture medium (Invitrogen Gibco, #419656-039) containing 10% foetal calf serum (FCS, Invitrogen Gibco, #10500-064) and 2 mM L-Glutamine (Invitrogen Gibco, #25030-024); the C-433 cells were cultured in MCCoy's 5A culture medium (Invitrogen Gibco, #26600-023)/RPMI 1640 (Invitrogen Gibco, #31870-025) (50/50) containing 10% FCS and 2 mM L-glutamine; the MCF7 cells were cultured in EMEM culture medium (EMEM, Biowhittaker, Lonza, #BE12-662F) containing 10% FCS and 2 mM L-Glutamine.
Evaluation of the Cell Viability via Luminescence Measurement: Celltiter-Glo™ Test
On day 1, the cells were inoculated at 1000 (C-433), 2500 (MCF7) and 10000 (LNCaP and MIA PaCa-2) cells per well in black-bottomed 96-well microplates (NUNC fluoronunc, Fisherbioblock 2311K) in 135 μl of whole culture medium and incubated at 37° C., 5% CO2, for 3 to 6 hours. The cells were then incubated with increasing concentrations of molecules diluted in dimethyl sulfoxide (DMSO, Sigma D2650). The molecules were added in a volume of 15 μl of a 10-fold concentrated solution in a final volume of 150 μl, the final percentage of DMSO being 0.1%. The cells were incubated at 37° C., 5% CO2, for 96 hours. After 4 days of treatment with the molecules, the CellTiter-Glo™ was performed by following the manufacturer's instructions (Kit Celltiter-Glo Luminescent, PROMEGA #G7571). Briefly, the cell plates were equilibrated for about 30 minutes at RT and 100 μl per well of Celltiter-Glo reagent were added. The cells were incubated for 1 hour at RT for lysis of the cells and stabilization of the signal. The intracellular ATP was quantified by measuring the luminescence in rlu units (relative luminescence units), 96 hours after initiation of the treatment, using a luminescence counter (Wallac). The tests were performed in six replicates.
i) the mean±s.e.m. of each series of well replicates was calculated;
ii) the maximum response is given by positive control wells containing untreated cells; this control was performed in 12 replicates;
iii) the minimum response is given by cell-free and untreated negative control wells; this control was performed in 6 replicates;
iv) using these maximum (100%) and minimum (0%) response values, respectively, the data were normalized to give a percentage relative to the maximum response;
The IC50 values were calculated by […] with the XLfit software (IDBS, UK) using formula 205.

Some results are limits rather than exact numbers.

On to `CN1CCCCC1C(OC(=O)Nc1ccc2[nH]ncc2c1)c1cc(F)cc(Cl)c1` (stereo not shown) [Ex 36, (3-Chloro-5-fluorophenyl)(1-methylpiperid-2-yl)methyl 1H-indazol-5-ylcarbamate], for which the IC50 (in general, the point on the concentration scale where inhibition reaches its midpoint) was under 100 nM in assay [1] and 10000 nM in assay [2].

For `O=C(Nc1ccc2[nH]ncc2c1)O[C@H](c1ccc(Cl)c(Cl)c1)[C@H]1CCCCN1` [Ex 37, (R)-(3,4-Dichlorophenyl)[(2R)-piperid-2-yl]methyl 1H-indazol-5-ylcarbamate], the IC50 in assay [1] is under 100 nM; in assay [2], 2450 nM.

Compound `CN1CCCCC1C(NC(=O)Nc1cc(F)c2[nH]ncc2c1)c1ccccc1` [Ex 21, 1-(7-Fluoro-1H-indazol-5-yl)-3-[(1-methylpiperid-2-yl)(phenyl)methyl]urea((S,2S),(R,2R))] returned an IC50 in assay [1] of 100 to 500 nM.

Consider `O=C(Nc1ccc2[nH]ncc2c1)O[C@@H](c1ccc(Cl)c(Cl)c1)[C@@H]1CCCCN1` [Ex 38b, (S)-(3,4-Dichlorophenyl)[(2S)-piperid-2-yl]methyl 1H-indazol-5-ylcarbamate], for which, in assay [1], the IC50 was under 100 nM.

Take `CN1CCCCC1C(NC(=O)Nc1ccc2[nH]ncc2c1)c1cc(F)cc(Cl)c1` (stereo not shown) [Ex 11, 1-[(3-Chloro-5-fluorophenyl)(1-methylpiperid-2-yl)methyl]-3-(1H-indazol-5-yl)urea]: the IC50 in assay [1] was under 100 nM; in assay [2], over 10000 nM.

As for `O=C(Nc1ccc2[nH]ncc2c1)OC(c1cc(Cl)cc(Cl)c1)C1CCCCN1` [Ex 34, (3,5-Dichlorophenyl)[piperid-2-yl]methyl 1H-indazol-5-ylcarbamate((S,2S),(R,2R))], the IC50 in assay [1] was under 100 nM; in assay [2], 2910 nM.

In the case of `CN1CCCCC1C(NC(=O)Nc1ccc2[nH]nc(-c3ccncc3)c2c1)c1ccccc1` [Ex 13, 1-[(1-Methylpiperid-2-yl)(phenyl)methyl]-3-(3-pyrid-4-yl-1H-indazol-5-yl)urea((S,2S),(R,2R))], the IC50 in assay [1] is 100 to 500 nM; in assay [2], 1450 nM.

Take `O=C(Nc1ccc2[nH]ncc2c1)O[C@@H](c1cc(F)cc(Cl)c1)[C@@H]1CCCCN1` [Ex 35, (S)-(3-Chloro-5-fluorophenyl)[(2S)-piperid-2-yl]methyl 1H-indazol-5-ylcarbamate]: the IC50 in assay [1] was under 100 nM; in assay [2] it was 3100 nM.

Regarding `O=C(Nc1ccc2[nH]ncc2c1)NC(c1cc(F)cc(Cl)c1)C1CCCCN1` (stereo not shown) [Ex 5, 1-[(3-Chloro-5-fluorophenyl)(piperid-2-yl)methyl]-3-(1H-indazol-5-yl)urea], the IC50 was under 100 nM in assay [1] and 7100 nM in assay [2].

Turning to `O=C(Nc1ccc2[nH]ncc2c1)N[C@@H](c1ccc(Cl)c(Cl)c1)[C@@H]1CCCCN1` [Ex 4, 1-{(S)-(3,4-Dichlorophenyl)[(2S)-piperid-2-yl]methyl}-3-(1H-indazol-5-yl)urea], the figures for the IC50 in assay [1] and in assay [2] were under 100 nM and 3420 nM, respectively.

`CN1CCCCC1C(NC(=O)Nc1ccc2[nH]nc(C#Cc3cccnc3)c2c1)c1ccccc1` [Ex 25, 1-[(1-Methylpiperid-2-yl)(phenyl)methyl]-3-[3-(pyrid-3-ylethynyl)-1H-indazol-5-yl]urea((S,2S),(R,2R))]: the IC50 in assay [1] is under 100 nM.

On to `O=C(Nc1ccc2[nH]ncc2c1)O[C@@H](c1cccc(Br)c1)[C@@H]1CCCCN1` [Ex 46], for which, in assay [1], the half-inhibitory concentration (IC50) is under 100 nM.

In the case of `Cc1n[nH]c2ccc(NC(=O)NC(c3ccccc3)C3CCCCN3C)cc12` [Ex 18, 3-Methyl-5-({[(1-methylpiperid-2-yl)(phenyl)methyl]carbamoyl}amino)-1H-indazole ((S,2S),(R,2R))], the values for the IC50 in assay [1] and in assay [2] were under 100 nM and 6100 nM, respectively.

Take `CN1CCCCC1C(NC(=O)Nc1ccc2[nH]nc(C#Cc3ccc(F)cc3)c2c1)c1ccccc1` [Ex 24, 1-{3-[(4-Fluorophenyl)ethynyl]-1H-indazol-5-yl}-3-[(1-methylpiperid-2-yl)(phenyl)methyl]urea((S,2S),(R,2R))]: the IC50 is under 100 nM in assay [1] and 1300 nM in assay [2].

Consider `S=C(Nc1ccc2[nH]ncc2c1)N[C@@H](c1ccc(Cl)c(Cl)c1)[C@@H]1CCCCN1` [Ex 31, 1-{(S)-(3,4-Dichlorophenyl)[(2S)-piperid-2-yl]methyl}-3-(1H-indazol-5-yl)thiourea], for which the IC50 in assay [1] is under 100 nM; in assay [2] it was 6250 nM.

Turning to `O=C(Nc1ccc2[nH]ncc2c1)N[C@@H](c1cc(F)cc(Cl)c1)[C@@H]1CCCCN1` [Ex 3, 1-{(S)-(3-Chloro-5-fluorophenyl)[(2S)-piperid-2-yl]methyl}-3-(1H-indazol-5-yl)urea], the figures for the IC50 in assay [1] and in assay [2] were under 100 nM and 10000 nM, respectively.
